Data on 2 compounds can be found in patent publication US11542287B2, “Alkyldiphenylmethane protective agent” (priority 2017, dated 2023).

Usually solubility stands for the concentration that dissolves in the medium under given conditions. High values mean a readily soluble substance, low ones a poorly soluble substance.

The data set can be described thus: physchem. The format is physicochemical. How it is done: Results of measurement of solubility of a peptide protected with an alkyldiphenylmethane protective agent of the present invention are shown below.
Peptide used as model: H-Phe-Leu-Gly-NH2
H-Phe-Leu-Gly-NH2 and H-Phe-Leu-Gly-NH-(TIPS2-Dpm(Me)) were synthesized, CPME (cyclopentyl methyl ether) was saturated with each of the compounds at 25° C., and the solubility was measured.
As a result, merely 0.2 mM of H-Phe-Leu-Gly-NH2 to which an alkyldiphenylmethane protective agent was not bonded was dissolved in CPME. […] H-Phe-Leu-Gly-NH2 and H-Phe-Leu-Gly-NH-(TIPS2-Dpm(Me)) represent the following structures.

Each structure is given as a SMILES string. ≈ marks a conversion by molar mass, not a printed value. Peptide text beside a SMILES is read from it. Some results are limits rather than exact numbers.

Turning to `CC(C)C[C@H](NC(=O)[C@@H](N)Cc1ccccc1)C(=O)NCC(N)=O` [H-Phe-Leu-Gly-NH2, reference compound] (H-Phe-Leu-Gly-NH2), the concentration in solution (solubility) was 200 µM (≈ 0.0669 mg/mL).

`CC(C)C[C@H](NC(=O)[C@@H](N)Cc1ccccc1)C(=O)NCC(=O)NC(C)(c1ccc(OCCCCCCCCCCCO[Si](C(C)C)(C(C)C)C(C)C)cc1)c1ccc(OCCCCCCCCCCCO[Si](C(C)C)(C(C)C)C(C)C)cc1` [H-Phe-Leu-Gly-NH-(TIPS2-Dpm(Me))]: the “increase in solubility versus H-Phe-Leu-Gly-NH2” value is recorded as ≥ 4,190 fold and the solubility is ≥ 838000 µM.
